Patent publication US11400084B2 (BioTheryX, Inc., priority 2018, dated 2022)

Columns and labels:
Format in all cases: cell-based
IKAROS = target: T1, IKAROS (Homo sapiens, UniProt Q13422+Q96SW2); assay: Western blot IKAROS degradation assay in MV-4-11 cells; conditions: 6-8 hours
T1 construct: endogenous in cells; host or cells: MV-4-11
Method: (§1) MV-4-11 cells were grown in RPMI 1640 media supplemented with 10% fetal bovine serum, streptomycin and penicillin.
(§2) Cells were cultured at approximately 10^6 cells per mL and incubated in DMSO or the indicated compound for 6-8 hours. Whole cell extracts were prepared using RIPA buffer according to manufacturer's protocol (Pierce). Briefly, 3×10^6 cells were washed once in PBS, the cell pellets were resuspended in RIPA buffer and allowed to incubate for 15 minutes on ice. Cells debris was removed by centrifugation and the cleared whole cell lysates were transferred to new tubes for further analysis.
(§3) For Western blot analysis, whole cell protein extracts were separated on 4-12% SDS-polyacrylamide gels, transferred to nitrocellulose and probed with the indicated primary antibodies. Membranes were subsequently washed and probed with the appropriate IRDye secondary antibodies (LI-COR). The signal was detected using the Odyssey Imaging System (LI-COR).
(§4) The following antibodies were used in these studies: Anti-eRF3/GSPT1: Abcam, ab126090 (Cambridge, Mass.); Anti-Ikaros: Abcam, ab191394 (Cambridge, Mass.); Anti-CK1α: Abcam, ab108296 (Cambridge, Mass.); β-actin (8H10D10) mouse monoclonal antibody: Cell Signaling Technology, #3700 (Danvers, Mass.); IRDye 680RD Goat anti-rabbit antibody: LI-COR, 926-68071 (Lincoln, Nebr.); IRDye 800CW Goat anti-mouse antibody: LI-COR, 926-32210 (Lincoln, Nebr.).
(§5) In each of Tables 1-3, the % degradation values are reported as “A”, “B”, “C”, or “D.” “A” represents a % degradation value of less than 25% (value<25%); “B” represents a % degradation value of equal to or more than 25% and less than 50% (25%≤value<50%); “C” represents a % degradation value of equal to or more than 50% and less than 75% (50%≤value<75%); and “D” represents a % degradation value of equal to or more than 75% (value≥75%).

CK1α = target: T2, CK1α (Homo sapiens, UniProt P48729+Q96SW2); assay: Western blot CK1α degradation assay in MV-4-11 cells; conditions: 6-8 hours
T2 construct: endogenous in cells; host or cells: MV-4-11
T2 sequence (P48729 whole entry): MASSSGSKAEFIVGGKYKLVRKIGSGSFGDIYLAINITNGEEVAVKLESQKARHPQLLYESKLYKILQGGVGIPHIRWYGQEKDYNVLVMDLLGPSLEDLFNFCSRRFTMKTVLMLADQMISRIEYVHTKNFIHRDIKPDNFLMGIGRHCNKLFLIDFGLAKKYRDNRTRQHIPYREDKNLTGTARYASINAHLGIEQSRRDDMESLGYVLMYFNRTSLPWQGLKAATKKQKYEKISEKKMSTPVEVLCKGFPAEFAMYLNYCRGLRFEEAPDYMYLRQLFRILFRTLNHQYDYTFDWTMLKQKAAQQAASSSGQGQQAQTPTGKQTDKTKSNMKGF
T2 sequence (Q96SW2 whole entry): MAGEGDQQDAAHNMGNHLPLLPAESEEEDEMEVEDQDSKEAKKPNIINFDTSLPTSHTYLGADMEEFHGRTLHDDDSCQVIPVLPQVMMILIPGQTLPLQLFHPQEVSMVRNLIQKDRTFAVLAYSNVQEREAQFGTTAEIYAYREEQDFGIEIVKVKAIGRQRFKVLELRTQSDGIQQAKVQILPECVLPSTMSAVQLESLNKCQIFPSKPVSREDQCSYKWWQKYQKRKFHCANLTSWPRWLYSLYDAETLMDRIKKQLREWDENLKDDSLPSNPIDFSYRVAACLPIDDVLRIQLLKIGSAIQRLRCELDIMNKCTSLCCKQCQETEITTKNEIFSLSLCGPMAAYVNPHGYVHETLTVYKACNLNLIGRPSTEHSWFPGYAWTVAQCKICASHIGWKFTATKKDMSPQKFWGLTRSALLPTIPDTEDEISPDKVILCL
T2 sequence (Q16531 whole entry partner): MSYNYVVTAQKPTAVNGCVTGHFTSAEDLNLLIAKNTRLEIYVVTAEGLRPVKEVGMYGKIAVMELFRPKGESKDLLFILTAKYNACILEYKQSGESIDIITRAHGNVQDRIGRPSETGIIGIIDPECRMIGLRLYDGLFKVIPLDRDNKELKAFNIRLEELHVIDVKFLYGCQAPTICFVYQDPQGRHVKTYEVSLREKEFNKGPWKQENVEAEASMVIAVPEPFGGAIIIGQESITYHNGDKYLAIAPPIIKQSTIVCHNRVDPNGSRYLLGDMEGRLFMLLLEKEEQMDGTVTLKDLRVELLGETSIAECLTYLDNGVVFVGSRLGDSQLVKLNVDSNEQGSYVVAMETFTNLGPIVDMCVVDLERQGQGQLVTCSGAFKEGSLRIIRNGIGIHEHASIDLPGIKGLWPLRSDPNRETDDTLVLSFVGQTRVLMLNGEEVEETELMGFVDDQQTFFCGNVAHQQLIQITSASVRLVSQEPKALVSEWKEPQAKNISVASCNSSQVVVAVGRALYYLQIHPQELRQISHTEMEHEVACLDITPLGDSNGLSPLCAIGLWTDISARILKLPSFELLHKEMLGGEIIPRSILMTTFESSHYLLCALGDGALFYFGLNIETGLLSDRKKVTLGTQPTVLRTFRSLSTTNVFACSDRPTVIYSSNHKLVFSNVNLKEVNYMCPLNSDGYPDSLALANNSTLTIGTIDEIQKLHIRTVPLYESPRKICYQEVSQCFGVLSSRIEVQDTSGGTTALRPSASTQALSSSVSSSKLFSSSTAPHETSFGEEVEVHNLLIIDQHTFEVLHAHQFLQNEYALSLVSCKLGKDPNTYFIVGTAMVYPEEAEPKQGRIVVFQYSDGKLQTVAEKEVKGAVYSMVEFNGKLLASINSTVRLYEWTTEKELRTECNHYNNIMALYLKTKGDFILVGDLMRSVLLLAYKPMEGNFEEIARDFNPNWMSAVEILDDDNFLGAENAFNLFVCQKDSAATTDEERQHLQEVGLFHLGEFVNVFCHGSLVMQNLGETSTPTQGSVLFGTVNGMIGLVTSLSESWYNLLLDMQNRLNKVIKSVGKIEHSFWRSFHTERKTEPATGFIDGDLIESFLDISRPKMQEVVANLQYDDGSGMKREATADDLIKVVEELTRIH
Method: as §1, §2, §3, §4, §5

IL-1β = IL-1β inhibition assay, LPS-induced PBMCs or CD14+ monocytes, Meso Scale; conditions: 100 ng/mL LPS 18-24 h
Method: (§6) Either frozen primary blood mononuclear cells (PBMCs) or frozen CD14+ mobilized peripheral blood monocytes were purchased from AllCells (PB003F, Normal Peripheral Blood MNC (Alameda, Calif.)). Cells were quick thawed, washed 1-time with RPMI-1640 (10% FBS/1% Pen-Strep) and plated in 96 well plates at 200,000 cells per well. Cells were pretreated with DMSO only or with the indicated compound for 1 h and then induced with 100 ng/mL lipopolysaccharide (LPS) for 18-24 h. The supernatant was analyzed for IL-1β, IL-6, and TNFα, using Meso Scale assay according to manufacturer's protocol. The negative control wells were treated with DMSO.

TNFα = assay: TNF-α inhibition assay, LPS-induced PBMCs or CD14+ monocytes, Meso Scale; conditions: 100 ng/mL LPS 18-24 h
Method: as §6

IL-2 = IL-2 fold-change assay, anti-CD3 stimulated PBMCs, Mesoscale; conditions: Homo sapiens, PBMC, 24 h, fold difference from the DMSO control
Method: For the IL-2 analysis, 96 well plates were precoated with 1 μg/mL anti-human CD3 antibody (OKT3, eBioscience Inc., San Diego, Calif.). After washing with PBS, the indicated compound was added (50 μL/well) followed by PBMCs diluted at 3-4 million cells/mL (150 μL/well). Plates were incubated for 24 h and the supernatants collected for Mesoscale IL-2 analysis. IL-2 activity is measured as fold difference from the DMSO control.
In Table 7, the fold-change values are reported as “A”, “B”, “C”, or “D”. “A” represents a fold-change value of equal to or less than 1 (value≤1); “B” represents a fold-change value of more than 1 and equal to or less than 2 (1<value≤2); “C” represents a fold-change value of more than 2 and equal to or less than 3 (2<value≤3); and “D” represents a fold-change value of more than 3 (value>3).

MOLM-13 cells = assay: MOLM-13 cell viability assay (CellTiter-Glo 2, 3 days, 2500 cells/well); conditions: Homo sapiens, MOLM-13, 72 h, percentage of DMSO control
Method: MOLM-13 cells were cultured in RPMI 1640 media supplemented with 10% fetal bovine serum, streptomycin and penicillin, and were plated in white walled 96-well plates at 2500 cells/well. Cells were incubated in DMSO (control) or the indicated compound for 3 days at 37° C. and 5% CO2. Following the incubation period, 100 μL of CellTiterGlow2 (CTG2) reagent (CellTiter-Glo®2 Luminescent Cell Viability Assay, Promega (Madison, Wis.)) was added to each well. Following a 10 minutes incubation with shaking, luminescence was measured using the EnVision Multimode plate reader.
The MOLM-13 cell viability values, measured as percentages of the DMSO control, are reported in Table 8 as “A”, “B”, “C”, or “D.” “A” represents a % viability value of less than 40% (value<40%). “B” represents a % viability value of equal to or more than 40% and less than 60% (40%≤value<60%). “C” represents a % viability value of equal to or more than 60% and less than 90% (60%≤value<90%). “D” represents a % viability value of equal or more than 90% (value≥90%).

GSPT1 = target: T3, GSPT1 (Homo sapiens, UniProt P15170+Q96SW2); assay: Western blot GSPT1 degradation assay in MV-4-11 cells; conditions: 1 μM, MV-4-11 cells, 6-8 hours
T3 construct: whole cell protein extracts were separated on 4-12% SDS-polyacrylamide gels; endogenous in cells; host or cells: MV-4-11
T3 sequence (P15170 whole entry): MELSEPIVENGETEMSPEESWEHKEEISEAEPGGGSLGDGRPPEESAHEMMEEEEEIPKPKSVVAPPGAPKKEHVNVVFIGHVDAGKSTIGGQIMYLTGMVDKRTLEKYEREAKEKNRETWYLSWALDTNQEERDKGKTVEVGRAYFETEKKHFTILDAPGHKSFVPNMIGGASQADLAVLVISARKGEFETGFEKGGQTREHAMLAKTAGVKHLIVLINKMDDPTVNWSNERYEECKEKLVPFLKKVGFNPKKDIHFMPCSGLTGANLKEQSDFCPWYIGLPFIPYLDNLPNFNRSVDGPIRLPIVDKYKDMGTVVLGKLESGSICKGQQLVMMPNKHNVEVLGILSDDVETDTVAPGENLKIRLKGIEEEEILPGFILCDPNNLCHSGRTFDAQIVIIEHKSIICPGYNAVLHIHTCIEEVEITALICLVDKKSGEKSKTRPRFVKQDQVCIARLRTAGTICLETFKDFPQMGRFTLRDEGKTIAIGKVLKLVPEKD
T3 sequence (Q96SW2 whole entry): as the sequence (Q96SW2 whole entry) above
T3 sequence (Q16531 whole entry partner): as the sequence (Q16531 whole entry partner) above
Method: as §1, §2, §3, §4, §5

T1 sequence (Q13422 whole entry): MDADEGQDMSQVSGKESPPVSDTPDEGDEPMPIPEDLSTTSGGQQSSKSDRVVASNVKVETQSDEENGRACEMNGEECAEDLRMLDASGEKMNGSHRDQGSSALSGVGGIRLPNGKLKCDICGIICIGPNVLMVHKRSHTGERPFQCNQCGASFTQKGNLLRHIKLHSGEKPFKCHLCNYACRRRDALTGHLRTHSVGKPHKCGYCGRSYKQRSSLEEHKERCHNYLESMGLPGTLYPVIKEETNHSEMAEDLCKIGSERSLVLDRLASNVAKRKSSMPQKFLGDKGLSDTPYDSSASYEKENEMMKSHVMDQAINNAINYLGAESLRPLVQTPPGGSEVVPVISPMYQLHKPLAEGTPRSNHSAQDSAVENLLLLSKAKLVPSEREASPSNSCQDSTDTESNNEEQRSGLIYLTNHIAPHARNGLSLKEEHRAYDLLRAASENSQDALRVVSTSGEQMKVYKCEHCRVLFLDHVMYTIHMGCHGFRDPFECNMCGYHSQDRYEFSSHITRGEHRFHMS
T1 sequence (Q96SW2 whole entry): as the sequence (Q96SW2 whole entry) above
T1 sequence (Q16531 whole entry partner): as the sequence (Q16531 whole entry partner) above

For `Cc1ccc(NCC(=O)NCc2csc3c2CN(C2CCC(=O)NC2=O)C3=O)cc1Cl` (centres unmarked) [Compound 5, 2-((3-chloro-4-methylphenyl)amino)-N-((5-(2,6-dioxopiperidin-3-yl)-6-oxo-5,6-dihydro-4H-thieno[2,3-c]pyrrol-3-yl)methyl)acetamide], the “IKAROS % Degradation at 1 μM” value (IKAROS) was “D (a % degradation value of equal to or more than 75% (value≥75%))”, the “CK1α % Degradation at 1 μM” value (CK1α) was “D (a % degradation value of equal to or more than 75% (value≥75%))” and the inhibition at 1 µM (IL-1β) was over 75%. For the same molecule, the inhibition at 1 µM (TNFα) was over 75%, the fold induction at 1 µM (IL-2) was over 3 and the viability at 1 µM (MOLM-13 cells) was under 40%.

With `Cc1cc(NCC(=O)NCc2scc3c2CN(C2CCC(=O)NC2=O)C3=O)ccc1N(C)C` (centres unmarked) [Compound 10, 2-((4-(dimethylamino)-3-methylphenyl)amino)-N-((5-(2,6-dioxopiperidin-3-yl)-4-oxo-5,6-dihydro-4H-thieno[3,4-c]pyrrol-1-yl)methyl)acetamide] the “IKAROS % Degradation at 1 μM” value (IKAROS) was “A (a % degradation value of less than 25% (value<25%))”, the “CK1α % Degradation at 1 μM” value (CK1α) was “B (a % degradation value of equal to or more than 25% and less than 50% (25%≤value<50%))” and the “GSPT1 % Degradation at 1 μM” value (GSPT1) was “D (a % degradation value of equal to or more than 75% (value≥75%))”. The viability at 1 µM (MOLM-13 cells) was over 90%.

For `Cc1ccc(NCC(=O)NCc2cccc3c2CN(C2CCC(=O)NC2=O)C3=O)cc1Cl` (centres unmarked) [Compound 14, 2-((3-chloro-4-methylphenyl)amino)-N-((2-(2,6-dioxopiperidin-3-yl)-1-oxoisoindolin-4-yl)methyl)acetamide], the “IKAROS % Degradation at 1 μM” value (IKAROS) was “D (a % degradation value of equal to or more than 75% (value≥75%))”, the “CK1α % Degradation at 1 μM” value (CK1α) was “C (a % degradation value of equal to or more than 50% and less than 75% (50%≤value<75%))” and the “GSPT1 % Degradation at 1 μM” value (GSPT1) was “C (a % degradation value of equal to or more than 50% and less than 75% (50%≤value<75%))”. The inhibition at 1 µM (IL-1β) was over 75%, the inhibition at 1 µM (TNFα) was 50 to 75% and the fold induction at 1 µM (IL-2) was 2 to 3. The viability at 1 µM (MOLM-13 cells) was 40 to 60%.

For `Cc1ccc(NCC(=O)NCc2ccc3c(c2)CN(C2CCC(=O)NC2=O)C3=O)nc1Cl` (centres unmarked) [Compound 20, 2-((6-chloro-5-methylpyridin-2-yl)amino)-N-((2-(2,6-dioxopiperidin-3-yl)-1-oxoisoindolin-5-yl)methyl)acetamide], the “IKAROS % Degradation at 1 μM” value (IKAROS) was “B (a % degradation value of equal to or more than 25% and less than 50% (25%≤value<50%))”, the “CK1α % Degradation at 1 μM” value (CK1α) was “B (a % degradation value of equal to or more than 25% and less than 50% (25%≤value<50%))” and the “GSPT1 % Degradation at 1 μM” value (GSPT1) was “B (a % degradation value of equal to or more than 25% and less than 50% (25%≤value<50%))”. The inhibition at 1 µM (IL-1β) was under 30%, the inhibition at 1 µM (TNFα) was 30 to 50% and the viability at 1 µM (MOLM-13 cells) was over 90%.

For `Cc1ccc(NCC(=O)NCc2ccc3c(c2)CN(C2CCC(=O)NC2=O)C3=O)cc1N1CCCC1` (centres unmarked) [Compound 24, N-((2-(2,6-dioxopiperidin-3-yl)-1-oxoisoindolin-5-yl)methyl)-2-((4-methyl-3-(pyrrolidin-1-yl)phenyl)amino)acetamide], the “IKAROS % Degradation at 1 μM” value (IKAROS) was “D (a % degradation value of equal to or more than 75% (value≥75%))”, the “CK1α % Degradation at 1 μM” value (CK1α) was “B (a % degradation value of equal to or more than 25% and less than 50% (25%≤value<50%))” and the “GSPT1 % Degradation at 1 μM” value (GSPT1) was “D (a % degradation value of equal to or more than 75% (value≥75%))”. It also gave a viability at 1 µM (MOLM-13 cells) of over 90%.

For `Cc1cc(NCC(=O)NCc2ccc3c(c2)CN(C2CCC(=O)NC2=O)C3=O)ccc1N(C)C` (centres unmarked) [Compound 25, 2-((4-(dimethylamino)-3-methylphenyl)amino)-N-((2-(2,6-dioxopiperidin-3-yl)-1-oxoisoindolin-5-yl)methyl)acetamide], the “CK1α % Degradation at 1 μM” value (CK1α) was “B (a % degradation value of equal to or more than 25% and less than 50% (25%≤value<50%))”, the “GSPT1 % Degradation at 1 μM” value (GSPT1) was “C (a % degradation value of equal to or more than 50% and less than 75% (50%≤value<75%))” and the inhibition at 1 µM (IL-1β) was under 30%. It also gave an inhibition at 1 µM (TNFα) of 30 to 50% and a fold induction at 1 µM (IL-2) of 1 to 2.
